How the values were obtained:
PF-27 peaches = test: Field thinning study, ACC and ABA, fruit set of PF-27 peaches; type: in vivo, peach; conditions: 1000 ppm, application at shuck split
Source text: Application of ACC alone at shuck split reduced fruit set in a dose dependent manner (Table 10).

Babygold #5 peaches = test: Scaffold gummosis rating of Babygold #5 peaches; type: in vivo, peach
Source text: Gummosis is a physiological stress response in which sap oozes from fractures in tree bark and often leads to tree decline. Use of 2-chloroethylphosphonic acid as a stone fruit thinning has been limited because it can stimulate severe incidences of gummosis of stone fruit.

cotton cotyledons = test: Cotton cotyledon bioassay, ethylene production; type: in vivo
Source text: For laboratory and growth chamber studies, deionized ultra-pure water was used in preparing solutions. Spray solutions were used as soon as possible after mixing. All spray solutions were amended with spray adjuvants as appropriate. A cotton cotyledon bioassay was used in the laboratory to study the effects of ACC or ethephon on induction of ethylene. Ten day old cotton plants with fully expanded cotyledons were used. Sprays were made to the upper (adaxial) surface of the leaves and the plants were then incubated in growth cabinets at the temperatures indicated. The cotyledons were excised at the times indicated and placed in sealed plastic vials. Headspace ethylene samples were measured on a Hewlett Packard 5890 gas chromatograph equipped with a packed Haysep T column (Alltech, Deerfield, Ill.) and a flame ionization detector.
Selected characteristics of ACC conversion to ethylene (i.e. dose response, time course, and temperature effect) were assessed to determine whether the relative consistence of ACC as a stone fruit and apple thinner was related to performance as an ethylene producer. In these bioassays, ACC solutions were applied to cotton cotyledons by a hand sprayer at the doses indicated and all spray solutions contained 0.05% (v/v) L-77.
In the first study, the effect of ACC dose sprays on ethylene produced by cotton cotyledons was determined. (Table 16). Cotton plants were sprayed with solution (ACC at 1, 10, 25, 50, 100, 250, 500, or 1000 ppm) and the cotyledons were excised 6 or 24 h after spraying and incubated in sealed tubes for 4 h. Ethylene levels were determined production was assayed.
In the second study, the time course of ethylene production following application of 500 mg/liter ACC or ethephon was determined (Table 17).
In the third study, the effect of temperature on ethylene production following ACC or ethephon application was determined (Table 18). The incubation of the plants following spraying and the incubation of the detached leaves were performed at 25 and 35° C.

Babygold #5 peach = test: Field thinning study, fruit set of Babygold #5 peach; type: in vivo; conditions: rate not given, 10 mm fruitlet timing

| Compound | Crop load (percent) of treated trees compared to the untreated control (PF-27 peaches) | Percent fruit set (PF-27 peaches) | Gummosis (in words) (Babygold #5 peaches; Babygold #5 peaches, Table 11 study) | Scaffold Gummosis (0 = no gummosis to 5 = severe gummosis) (Babygold #5 peaches; rate not given, 10 mm fruitlet timing, scale 0-5) | Ethylene production (cotton cotyledons; 200 ppm, 24 h after application, incubated at 25 C) | Ethylene production (cotton cotyledons; 200 ppm, 24 h after application, incubated at 35 C) | Ethylene production (cotton cotyledons; 500 ppm, 1 h following spray application, 25 C (time course)) | Ethylene production (cotton cotyledons; 500 ppm, 4 h following spray application, 25 C (time course)) | Ethylene production (cotton cotyledons; 500 ppm, 15 h following spray application, 25 C (time course)) | Ethylene production (cotton cotyledons; 500 ppm, 24 h following spray application, 25 C (time course)) | Ethylene production (cotton cotyledons; 500 ppm, 48 h following spray application, 25 C (time course)) | Percent Fruit Set (Babygold #5 peach) |
| --- | --- | --- | --- | --- | --- | --- | --- | --- | --- | --- | --- | --- |
| CC1=CC(=O)CC(C)(C)[C@@]1(O)/C=C/C(C)=C\C(=O)O [ABA, abscisic acid, reference compound] | 80% | 69% |  |  |  |  |  |  |  |  |  |  |
| O=P(O)(O)CCCl [Ethephon, 2-chloroethylphosphonic acid, reference compound] |  |  | substantially increased gummosis | 4.7 | 41.0 nl/g leaf weight/h incubated | 133.1 nl/g leaf weight/h incubated | 153.4 nl/g leaf weight/h incubated | 102.5 nl/g leaf weight/h incubated | 106.0 nl/g leaf weight/h incubated | 90.8 nl/g leaf weight/h incubated | 58.5 nl/g leaf weight/h incubated | 8.4% |
